Data reported in patent US20070276032A1, “Use of 8-Prenylnaringenin for Hormone Replacement Therapy” (priority 2003, published 2007).

Columns and labels:
[1] = system: ERE-Luc; assay: Estrogenic activity in the estrogen reporter mouse ERE-Luc model, luciferase activity in organs (Example 5); type: in vivo, mice; conditions: male ERE-Luc mice, six hours after the injection; for Luciferase activity, Prostate: controls 0.5; for Luciferase activity, Bone: controls 2.8; for Luciferase activity, Brain: controls 6.5; for Luciferase activity, Liver: controls 7.6
Protocol: In order to avoid experimental noise male animals were used.
Fourtyfive heterozygous male ERE-Luc mice of two months of age were fed with soy-free diet for two weeks before assigning them to each experimental group then all the mice were injected intraperitoneally (i.p.) with 250 μl of an oily solution containing the following compounds: • 1. Experimental group 1: vehicle • 2. Experimental group 2: 17β-estradiol at 1.5 μg/kg • 3. Experimental group 3: 2S(−)-8-PN at 30 mg/kg • 4. […] Experimental group 5: genistein at 30 mg/kg.
The treatment was carried out in experimental groups of three mice each and repeated three times (therefore numbers reflect the average of […] determinations on a total of 9 animals).
Six hours after the injection, mice were sacrificed by cervical dislocation and organs were dissected and frozen on dry ice. The following organs were analyzed for lucifererase activity by enzymatic assay: prostate, liver, bone, brain.
Data represent means ±standard deviation of N=9 animals per group.
Analysis of variance (ANOVA) for overall comparison was followed by Tukey test for paired comparisons. All statistical procedures were carried out with Systat and SAS (*P<0.05; **P<0.01).

[2] = system: ovariectomized rats; assay: Bone mineral density of proximal tibia, estradiol in ovariectomized rats (Example 2); type: in vivo, Sprague-Dawley rats; conditions: OVX rats; for Total bone density / Trabecular density: proximal tibia, s.c. 5 days a week, 4 weeks
Protocol: Fifty-six female Sprague-Dawley rats, 12-14 weeks old, were used altogether. Forty-nine animals were randomized into seven groups. Group 8 (seven animals) administered with the third vehicle, benzyl alcohol/sesame oil, was added to the study thirteen days later. Seven groups were ovariectomized (OVX) and one group was sham-operated (SHAM). Animals were treated subcutaneously once a day, five days a week (Monday-Friday) as follows. Groups 1 (the SHAM group) and 2 (the OVX group) were given the vehicle benzylbenzoate/ricinus oil (0.5 ml/kg, B/R). […] Treatments started on the day following surgical operation and continued for 4 weeks. At the end of the study, ex vivo BMD of proximal tibia was measured and serum estradiol was determined. In addition, uterus was weighed. Bone mineral density measurement was carried out by pQCT (XCT-960A, Stratec, Germany). The bone specimens were thawed before measurement. Six 1 mm-thick sections of the proximal tibia (2 mm below the epiphyseal growth plate) were scanned at 0.5 mm intervals using a voxel size of 0.148 mm. […] After bone densitometry, the specimens were wrapped back to saline saturated gauzes and stored at −20° C.

[3] = Body weight, estradiol in ovariectomized rats (Example 2); type: in vivo, Sprague-Dawley rats; conditions: OVX rats, s.c. once a day, 5 days a week, 4 weeks
Protocol: (§1) Fifty-six female Sprague-Dawley rats, 12-14 weeks old, were used altogether. Forty-nine animals were randomized into seven groups. Group 8 (seven animals) administered with the third vehicle, benzyl alcohol/sesame oil, was added to the study thirteen days later. Seven groups were ovariectomized (OVX) and one group was sham-operated (SHAM). Animals were treated subcutaneously once a day, five days a week (Monday-Friday) as follows. Groups 1 (the SHAM group) and 2 (the OVX group) were given the vehicle benzylbenzoate/ricinus oil (0.5 ml/kg, B/R). […] Treatments started on the day following surgical operation and continued for 4 weeks. At the end of the study, ex vivo BMD of proximal tibia was measured and serum estradiol was determined. In addition, uterus was weighed.

[4] = system: ovariectomized rats; assay: Relative uterine weight, estradiol in ovariectomized rats (Example 2); type: in vivo, Sprague-Dawley rats; conditions: OVX rats; for Relative uterine weight: s.c. 5 days a week, 4 weeks
Protocol: as §1, with “weighed. Relative uterine weight was calculated as percentage of body weight” for “weighed.”

[5] = system: ovariectomized rats; assay: Relative uterus weight, 8-PN racemic, 2S(−) 8-PN and estradiol hemihydrate in ovariectomized rats (Example 4); type: in vivo, Sprague-Dawley rats; conditions: OVX rats, s.c. 28 days, calculated as percentage of body weight
Protocol: (§2) The aim of the study was to directly compare the effects of Prenylnaringenin (racemate) and 2S(−) 8-Prenylnaringenin to the effects of estradiol hemihydrate on bone mineral density and uterine weight on 3-month-old ovariectomized rats using identical formulations. In addition, the effects of estradiolhemihydrate in two vehicles (oily, aqueous) were examined for influence of formulations. The substances were administered subcutaneously(s.c.) seven days a week beginning the day after ovariectomy. At the end of the study, uterine weight and bone mineral density (BMD) of tibia were measured.
(§3) Forty-one female Sprague-Dawley rats, 12-14 weeks of age were randomized into six groups, 6-8 animals in each. Five groups were ovariectomized (OVX) and one group was sham-operated (SHAM). Treatments started on the day following operation and continued for 28 days. The animals were treated s.c. once a day seven times a week as follows. Group 1 (SHAM vehicle group) and group 2 (OVX vehicle group) were given the vehicle 30% hydroxypropyl-β-cyclodextrin (HP-β-CD). Groups 3 and 4 were administered 4 μg/kg/d of estradiol hemihydrate in vehicle benzyl benzoate/ricinus oil (B/R) and in vehicle HP-β-CD, respectively. Groups 5 and 6 were given 20 mg/kg/d of 2S(−)8-Prenylnaringenin and racemic 8-Prenylnaringenin, respectively, both in vehicle HP-β-CD. At the end of the study, left tibiae were excised for the ex vivo BMD […] were taken from all dosing solutions on the first and last day of use.
(§4) Vehicle 1 (used in the groups 1 and 2): 30% hydroxypropyl-β-cyclodextrin and 0.3% NaCl (w/v), 5% ethanol (v/v) in Aqua sterilisata, pH 7.4.
(§5) Vehicle 2 (used when preparing dosing solutions of the groups 4, 5 and 6): 30% hydroxypropyl-β-cyclodextrin and 0.3% NaCl (w/v) in Aqua sterilisata, pH 7.4.
(§6) Vehicle 3 (used when preparing a dosing solution of the group 3): benzyl benzoate/ricinus oil (B/R) 1+4, v/v.

[6] = system: ovariectomized rats; assay: Trabecular density of proximal tibia, 8-PN racemic, 2S(−) 8-PN and estradiol hemihydrate in ovariectomized rats (Example 4); type: in vivo, Sprague-Dawley rats; conditions: OVX rats, s.c. 28 days
Protocol: as §2, §3, §4, §5, §6

[7] = Body weight, 8-PN racemic, 2S(−) 8-PN and estradiol hemihydrate in ovariectomized rats (Example 4); type: in vivo, Sprague-Dawley rats; conditions: OVX rats, s.c. once a day, 28 days
Protocol: as §2, §3, §4, §5, §6

[8] = 4.0 μpg/kg/d s.c. five times a week for four weeks
[9] = 4 μg/kg/d in benzyl benzoate/ricinus oil (B/R)

In the case of C[C@]12CC[C@@H]3c4ccc(O)cc4CC[C@H]3[C@@H]1CC[C@@H]2O [17β-estradiol], the “Luciferase activity, Prostate” value ([1]; i.p. 1.5 μg/kg) is reported as 0.5 arbitrary units, the “Luciferase activity, Bone” value ([1]; i.p. 1.5 μg/kg) is reported as 2.6 arbitrary units and the “Luciferase activity, Brain” value ([1]; i.p. 1.5 μg/kg) is reported as 6.6 arbitrary units. For the same compound, the “Luciferase activity, Liver” value ([1]; i.p. 1.5 μg/kg) was 11.0 ** arbitrary units, the “effect on total and trabecular bone mineral density of proximal tibia” value [2, 8] was “prevented the OVX-induced decrease in total and trabecular bone mineral density of proximal tibia” and the Total bone density ([2]; 0.2 μg/kg/d in B/R) was 511 (17) mg/cm^3. For the same compound, the Trabecular density ([2]; 0.2 μg/kg/d in B/R) was 271 (17) mg/cm^3, the Total bone density ([2]; 0.4 μg/kg/d in B/R) was 506 (8) mg/cm^3 and the Trabecular density ([2]; 0.4 μg/kg/d in B/R) was 260 (13) mg/cm^3. For the same compound, the Total bone density ([2]; 1.2 μg/kg/d in B/R) was 577 (24) mg/cm^3, the Trabecular density ([2]; 1.2 μg/kg/d in B/R) was 376 (31) mg/cm^3 and the Total bone density ([2]; 1.2 μg/kg/d in E/A) was 577 (22) mg/cm^3. For the same compound, the Trabecular density ([2]; 1.2 μg/kg/d in E/A) was 366 (24) mg/cm^3, the Total bone density ([2]; 4.0 μg/kg/d in B/R) was 637 (13) mg/cm^3 and the Trabecular density ([2]; 4.0 μg/kg/d in B/R) was 435 (21) mg/cm^3. The Final body weight ([3]; 0.2 μg/kg/d in vehicle B/R) was 304 (6) g, the “The change in body weight” value ([3]; 0.2 μg/kg/d in vehicle B/R) was 51 (3) g and the Final body weight ([3]; 0.4 μg/kg/d in vehicle B/R) was 312 (6) g. The “The change in body weight” value ([3]; 0.4 μg/kg/d in vehicle B/R) was 53 (5) g, the Final body weight ([3]; 1.2 μg/kg/d in vehicle B/R) was 303 (6) g and the “The change in body weight” value ([3]; 1.2 μg/kg/d in vehicle B/R) was 48 (4) g. For the same compound, the Final body weight ([3]; 1.2 μg/kg/d in vehicle E/A) was 287 (8) g, the “The change in body weight” value ([3]; 1.2 μg/kg/d in vehicle E/A) was 33 (3) g and the Final body weight ([3]; 4.0 μg/kg/d in vehicle B/R) was 284 (7) g. The “The change in body weight” value ([3]; 4.0 μg/kg/d in vehicle B/R) was 31 (3) g, the “effect on relative uterine weight” value [4, 8] was “prevented the decrease in relative uterine weight and maintained it on the level of the SHAM vehicle group” and the Relative uterine weight ([4]; 0.2 μg/kg/d in B/R) was 0.045 (0.003) % of body weight. The Relative uterine weight ([4]; 0.4 μg/kg/d in B/R) was 0.054 (0.003) % of body weight, the Relative uterine weight ([4]; 1.2 μg/kg/d in B/R) was 0.110 (0.008) % of body weight and the Relative uterine weight ([4]; 1.2 μg/kg/d in E/A) was 0.114 (0.005) % of body weight. The Relative uterine weight ([4]; 4.0 μg/kg/d in B/R) was 0.159 (0.006) % of body weight.

In the case of C[C@]12CC[C@@H]3c4ccc(O)cc4CC[C@H]3[C@@H]1CC[C@@H]2O [estradiol hemihydrate, 17β-estradiol hemihydrate, reference compound], the “Relative uterus weight, Mean” value ([5]; 4 μg/kg/d in B/R) is reported as 0.175, the “Relative uterus weight, Median” value ([5]; 4 μg/kg/d in B/R) is reported as 0.178 and the “Relative uterus weight, Mean” value ([5]; 4 μg/kg/d in HP-β-CD) is reported as 0.131. The “Relative uterus weight, Median” value ([5]; 4 μg/kg/d in HP-β-CD) was 0.120, the Total bone density ([2]; 1.2 μg/kg/d in BA/S) was 596 (18) mg/cm^3 and the Trabecular density ([2]; 1.2 μg/kg/d in BA/S) was 386 (21) mg/cm^3. For the same compound, the Final body weight ([3]; 1.2 μg/kg/d in vehicle BA/S) was 288 (11) g, the “The change in body weight” value ([3]; 1.2 μg/kg/d in vehicle BA/S) was 28 (1) g and the “Trabecular density at left proximal tibia, Mean” value ([6]; 4 μg/kg/d in B/R) was 542 mg/cm3. For the same compound, the “Trabecular density at left proximal tibia, Median” value ([6]; 4 μg/kg/d in B/R) was 577 mg/cm3, the “Trabecular density at left proximal tibia, Mean” value ([6]; 4 μg/kg/d in HP-β-CD) was 406 mg/cm3 and the “Trabecular density at left proximal tibia, Median” value ([6]; 4 μg/kg/d in HP-β-CD) was 383 mg/cm3. The Relative uterine weight ([4]; 1.2 μg/kg/d in BA/S) was 0.131 (0.008) % of body weight, the “Body weight at The end (bw4b)” value ([7]; 4 μg/kg/d in HP-β-CD) was 285(9) g and the “The change in Body weight (bw4b-bw0)” value ([7]; 4 μg/kg/d in HP-β-CD) was 10(4) g. The “Body weight at The end (bw4b)” value [7, 9] was 291(9) g and the “The change in Body weight (bw4b-bw0)” value [7, 9] was 17(4) g.

In the case of O=c1c(-c2ccc(O)cc2)coc2cc(O)cc(O)c12 [Genistein, genistein], the “Luciferase activity, Prostate” value ([1]; i.p. 30 mg/kg) is reported as 0.7 ** arbitrary units, the “Luciferase activity, Bone” value ([1]; i.p. 30 mg/kg) is reported as 3.8 * arbitrary units and the “Luciferase activity, Brain” value ([1]; i.p. 30 mg/kg) is reported as 8.7 arbitrary units. The “Luciferase activity, Liver” value ([1]; i.p. 30 mg/kg) was 12.2 ** arbitrary units.
